# Columns and labels:
# laboratory mice = details: GM284 topical delivery (US2009/0093528A1); XAV-939 (Bastakoty et al. 2015); 1,4-DPCA (Zhang et al. 2015); cited from earlier work
# [1] = tested on: ear pinnae of the BALB/c 2-month-old female mice; experiment: Ear pinnae hole closure (ear pinnae injury model, 2 mm through-and-through holes); type: in vivo
# Method: In order to evaluate the regenerative effect of zebularine, through-and-through holes of 2 mm diameter were made in the ear pinnae of the BALB/c 2-month-old female mice using scissor style ear punch. The mice were randomly divided into two groups consisting of six individuals each. The mice of one group were intraperitoneally injected with 7 doses of zebularine dissolved in saline (50 mg/ml), 1000 mg/kg body weight, on the day of injury directly after punching, and 1, 2, 3, 4, 7, 10 days after injury. The second, control group, was administered with saline.
# The experiment was repeated 8 times. Collectively, the experiment was performed for 47 zebularine treated and 48 saline (vehiculum) administered control mice. […] The mean ear hole areas determined on the day 42 post injury were 0.53+/-0.3 and 1.77+/-0.48 sq mm for zebularine treated and saline controls, respectively. The results expressed as percentage of wound closure correspond to 83.2% and 43.6% for the zebularine treated and control group, respectively (Figure 2).The timeline of regeneration process is presented in Figure 3. […] The distributions of ear hole areas on the day 42 after injury were plotted as dot diagrams, where each dot represents an individual ear (Figure 4). The diagrams not only show the biological variation in response to injury and zebularine treatment but clearly expose the contrast between the control and zebularine treated groups. […]
# [2] = tested on: Cdkn2a, Msx1, Nanog, Sox2, Bdnf, Sox1, Nog, and Myt1l; experiment: Expression of pluripotency, developmental and cell cycle genes in the injury/repair area (real-time PCR); type: in vivo; details: day 7 after injury; zebularine treated versus control mice; most remarkable for Nanog and Sox2
# Text: In order to determine the effect of zebularine on the expression of pluripotency, developmental and cell cycle genes, the transcript levels for a panel of selected genes including Cdkn2a, Msx1, Nanog, Sox2, Bdnf, Sox1, Nog, and Myt1l were examined in the injury/repair area, in zebularine treated and control mice at the day 7, 14, 21 and 42 following injury in addition to unwounded ear pinnae designated as day 0. For the purpose, the ear punched mice were sacrificed at selected time points, the ears were collected on RNAlater reagent (Qiagen), stored at -80 °C until the rings surrounding the holes were excised using a 3 mm biopsy punch, following RNA extraction from thus obtained tissues using RNeasy kit (Qiagen). The levels of selected transcripts were determined for 6 mice (8 ears) for each time point using real-time PCR quantitation and Tbp and Actb as the reference genes. […] The most remarkable changes were found for the pluripotency genes, Nanog and Sox2 (Figure 7).
# 5-methylcytosine = experiment: Global DNA methylation in the injury/regeneration area (5-mC DNA ELISA); type: in vivo, mice; details: day 7 following injury; zebularine treated versus control
# Text: DNA methylation in promoter regions is one of key epigenetic mechanisms responsible for gene repression. In order to determine the zebularine demethylating effect on DNA in the regenerating tissues, the content of 5-methylcytosine was compared in the tissues collected from the rings surrounding the ear pinnae holes in the zebularine treated and control animals. For the purpose, the ear punched zebularine treated and control mice were sacrificed at the days 7, 14, 21, and 42 after injury. The ears were collected, and the rings surrounding the holes were excised with a 3 mm biopsy punch, following genomic DNA extraction from thus obtained tissues using DNeasy kit (Qiagen). The levels of 5-methylcytosine were estimated using 5-mC DNA ELISA Kit (ZYMO, D5325) in 100 ng aliquots of genomic DNA.
# [3] = tested on: dorsal skin wounds, mice of the BALB/c strain; experiment: Dorsal skin excision model, topical delivery, wound closure; type: in vivo
# Method: The effect of topically delivered zebularine on wound healing was determined using the dorsal skin excision model. Six 2-month-old female mice of the BALB/c strain were used for the experiment. Prior to the injury, the mice were anaesthetized. The dorsal skin was shaved and disinfected. Two symmetrical full-thickness excisional wounds were made in the dorsum using a biopsy punch of 6 mm diameter. Ten microliter of zebularine suspension (200 mg per 1 ml of saline) was dropped directly onto the wound immediately after wounding and once daily for the next four days. Promptly after zebularine application, the wounds were covered with a transparent dressing, and next, the dressing was fastened with adhesive plaster wrapped around the mouse. An analogical experiment was performed for six mice of control group that were not treated with zebularine. The animal study protocol was approved by the Local Ethics Committee for Animal Experimentation at the University of Science and Technology in Bydgoszcz, Poland (Permit No. 49/2016).
# The wounds were photographed on the day of injury (d0) and on the day 2, 4, 7, 9, 11, 14, and 18 after wounding. The wound closure progress was tracked by determining wound area using computer-assisted image analysis. […] Complete wound closure was observed on the day 11 for zebularine treated mice and on the day 18 for the control ones (Figure 13).
# [4] = 37°C, pH 7.4 (Cheng et al. 2003); cited from earlier work
# [5] = estimated (Ben-Kasus et al. 2005); cited from earlier work
# mice = details: 400 mg/kg body weight intraperitoneally for 78 consecutive days (Herranz et al. 2006); cited from earlier work
structure (smiles),measurement,setting,value
"O=C(O)c1c[nH]c2c(ccc3cccnc32)c1=O [1,4-DPCA, 4-oxo-1H-1,10-phenanthroline-3-carboxylic acid]",ear hole closure reported in the literature (result in words),laboratory mice,partial ear hole closure induction
"CC1=C(/C=C/C(C)=C/C=C/C(C)=C/C(=O)O)C(C)(C)CCC1=O [4-keto RA, 4-keto retinoic acid, reference compound]",ear hole closure (result in words),"[1]; Example 4: i.p., zebularine 1000 mg/kg 7 times, RA or 4-keto RA 16 mg/kg 6 times, followed for 42 days",Partial ear hole closure
"Nc1ncn([C@@H]2O[C@H](CO)[C@@H](O)[C@H]2O)c(=O)n1 [5-azacytidine, reference compound]",effect on ear hole closure (result in words),"[1]; 0.25 mg/kg body weight i.p., 7 times, day 42, 6 mice, compared with zebularine and saline",did not stimulate ear hole closure
CCC(C)(C)C(=O)C(=O)N1CCC[C@H]1c1nnc([C@@H]2CCCN2C(=O)C(=O)C(C)(C)CC)o1 [GM284],ear hole closure reported in the literature (result in words),laboratory mice,Ear hole closure
Oc1nc(-c2ccc(C(F)(F)F)cc2)nc2c1CSCC2 [XAV-939],ear hole closure reported in the literature (result in words),laboratory mice,partial ear hole closure induction
"O=c1ncccn1[C@@H]1O[C@H](CO)[C@@H](O)[C@H]1O [zebularine, 1-(β-D-ribofuranosyl)-2(1H)-pyrimidinone]",mean ear hole areas determined on the day 42 post injury,"[1]; 1000 mg/kg body weight intraperitoneally, 7 doses (day 0, 1, 2, 3, 4, 7, 10), 47 mice, saline control 1.77+/-0.48",0.53+/-0.3 sq mm
same,day after injury of maximal ear hole closure,"[1]; 1000 mg/kg i.p., 7 doses",35 days
same,day after injury from which significantly better ear hole closure was recorded,"[1]; 1000 mg/kg i.p., 7 doses, versus saline control",21 days
same,percentage of wound closure (ear hole closure area),"[1]; day 42 after injury, 1000 mg/kg i.p., 7 doses, control group 43.6%",83.2%
same,time to almost complete closure of the ear pinnae hole,"[1]; representative mouse, 1000 mg/kg i.p., 7 doses (Figure 1)",approximately 30 days
same,effect of subcutaneous delivery on ear pinnae hole closure,"[1]; subcutaneous injections, 1000 mg/kg, 7 doses, day 42 (Figure 6)",statistically significant response but proved less effective than intraperitoneal delivery
same,expression of the selected transcripts in the injury/repair area,[2],Significantly enhanced expression
same,DNA methylation (5-methylcytosine content) in the injury/regeneration area,5-methylcytosine,significant decrease in DNA methylation
same,decrease of the time of wound closure,"[3]; 10 microliter of 200 mg/ml suspension after wounding and once daily for four days, 6 mm wounds",approximately 7 days
same,day of complete wound closure,"[3]; 10 microliter of 200 mg/ml suspension, five applications, control day 18",11 days
same,half-life in water,[4],21.2 days
same,RNA incorporation relative to DNA incorporation,[5],7 fold
same,toxic effects in mice,mice,No toxic effects
